In patent US12599596B2, “Anti-tumor pharmaceutical composition based on immune checkpoint blockade and use thereof” (Shanghai Hui Tian Jin Ze Biotech Co., Ltd., priority 2023, dated 2026):
Where a name gives a salt, the structure may show the parent alone.

How the values were obtained:
PD-L1 in tumor cells = assay: Expression of PD-L1 in tumor cells with paroxetine hydrochloride; assay type: cell-based; settings: no method or data given
MC38 colon cancer cells = assay: MC38 subcutaneous tumor model in C57BL/6 mice, Embodiment 5; assay type: in vivo; settings: for Tumor volume: CBD 100 mg/kg, PAR 5 mg/kg, vitamin E 50 mg/kg; for therapeutic / tumor inhibition effect in words: normal mice, Embodiment 5, comparison between groups
Method: MC38 colon cancer cells were inoculated into 6-week-old female C57BL/6 mice (1×10^6 cells/mouse) to establish a subcutaneous tumor model. After the tumor volume reached 50 mm^3, the mice were grouped and administered with the following pharmaceutical combinations: (1) control group (no drug administration), (2) anti-PD-1 ([…] per time) group, (3) vitamin E(α-tocopherol) (50 mg/kg) group, (4) CBD (100 mg/kg) group, (5) CBD (100 mg/kg)+vitamin E(α-tocopherol) (50 mg/kg) group, (6) PAR (5 mg/kg) group, (7) PAR (5 mg/kg)+vitamin E(α-tocopherol) (50 mg/kg) group, (8) CBD (100 mg/kg)+PAR (5 mg/kg) group, and (9) PAR (5 mg/kg)+CBD (100 mg/kg)+vitamin E(α-tocopherol) (50 mg/kg) group.
The tumor weight, tumor volume, and mouse body weight were monitored once every 2 days. The tumor volume was calculated as follows: tumor volume (mm^3)=0.5×(length)×(width)^2. The mice were sacrificed 14 days after drug administration, and the tumors were dissected.
The dissolving mode of the pharmaceutical composition was as follows: the pharmaceutical composition was dissolved in 10% DMSO+corn oil, the mice were gavaged with the pharmaceutical composition at 100 μl/mice, and the mice in the control group were injected with the same volume of the solvent.

[1] = system: MC38 colorectal cancer cells; assay: MC38 subcutaneous tumor model in C57BL/6 mice, Embodiment 2; assay type: in vivo; settings: for Tumor volume: CBD 100 mg/kg, PAR 10 mg/kg, vitamin E 50 mg/kg, thymosin 2 mg/kg
Method: • 1. MC38 colorectal cancer cells were inoculated into 6-week-old female C57BL/6 mice (1×10^6 cells/mouse) to establish a subcutaneous tumor model. After the tumor volume reached 50 mm^3, the mice were grouped and administered according to the following pharmaceutical combinations: (1) control group (no administration), (2) anti-PD-1 ([…]/time) group, (3) anti-CTLA4 ([…]/time) group, (4) CBD (100 mg/kg) group, (5) CBD (100 mg/kg)+anti-CTLA4 ([…]/time) group, (6) PAR (10 mg/kg) group, (7) PAR (10 mg/kg)+anti-CTLA4 ([…]) group, (8) CBD (100 mg/kg)+PAR (10 mg/kg) group, (9) vitamin E(a-tocopherol) (50 mg/kg)+thymosin (2 mg/kg) group, (10) CBD (100 mg/kg)+vitamin E(α-tocopherol) (50 mg/kg)+thymosin (2 mg/kg) group, (11) PAR (10 mg/kg)+vitamin E(α-tocopherol) (50 mg/kg)+thymosin (2 mg/kg), (12) PAR (10 mg/kg)+CBD (100 mg/kg)+vitamin E(α-tocopherol) (50 mg/kg)+thymosin (2 mg/kg) group, (13) CBD (100 mg/kg)+vitamin E(α-tocopherol) (50 mg/kg)+thymosin (2 mg/kg)+anti-CTLA4 ([…]/time) group, (14) PAR (10 mg/kg)+vitamin E(α-tocopherol) (50 mg/kg)+thymosin (2 mg/kg)+anti-CTLA4 ([…]) group, and (15) CBD (100 mg/kg)+PAR (10 mg/kg)+vitamin E(α-tocopherol) (50 mg/kg)+thymosin (2 mg/kg)+anti-CTLA4 ([…]/time) group. The tumor weight and volume, and body weight of the mice were monitored once every 2 days. The tumor volume was calculated as follows: tumor volume (mm^3)=0.5×(length)x(width)^2. The mice were sacrificed 14 days after drug administration, and the tumors were dissected.
The dissolving mode of the pharmaceutical composition was as follows: the pharmaceutical composition was dissolved in 10% DMSO+corn oil, the mice were gavaged with the pharmaceutical composition at 100 pl/mouse, and the mice in the control group were injected with the same volume of the solvent. • 2. MC38 colorectal cancer cells were inoculated into 6-week-old female nude mice (1×10^6 cells/mouse) to establish a subcutaneous tumor model. After the tumor volume reached 50 mm^3, the mice were grouped and administered according to the following pharmaceutical combinations: (1) control group, (2) CBD (100 mg/kg)+vitamin E(α-tocopherol) (50 mg/kg)+thymosin (2 mg/kg) group, (3) PAR (10 mg/kg)+vitamin E(α-tocopherol) (50 mg/kg)+thymosin (2 mg/kg) group, and (4) PAR (10 mg/kg)+CBD (100 mg/kg)+vitamin E(α-tocopherol) (50 mg/kg)+thymosin (2 mg/kg) group. The tumor weight and volume, and the body weight of the mice were monitored once every 2 days. The tumor volume was calculated as follows: tumor volume (mm^3)=0.5×(length)x(width)^2. The mice were sacrificed 14 days after drug administration, and the tumors were dissected. (II) Experimental Results 1.

Row | SMILES | expression of PD-L1 in tumor cells (PD-L1 in tumor cells) | Tumor volume (MC38 colon cancer cells; Day 0) | Tumor volume (MC38 colon cancer cells; Day 4) | Tumor volume (MC38 colon cancer cells; Day 6) | Tumor volume (MC38 colon cancer cells; Day 8) | Tumor volume (MC38 colon cancer cells; Day 10) | Tumor volume (MC38 colon cancer cells; Day 12) | Tumor volume (MC38 colon cancer cells; Day 14) | Tumor volume (MC38 colon cancer cells; Day 16) | therapeutic / tumor inhibition effect in words (MC38 colon cancer cells) | Tumor volume ([1]; Day 0) | Tumor volume ([1]; Day 2) | Tumor volume ([1]; Day 4) | Tumor volume ([1]; Day 6) | Tumor volume ([1]; Day 8) | Tumor volume ([1]; Day 10) | Tumor volume ([1]; Day 12) | Tumor volume ([1]; Day 14) | Tumor volume ([1]; Day 16) | therapeutic / tumor inhibition effect in words ([1]; normal mice, Embodiment 2, comparison between groups)
1 | Fc1ccc([C@@H]2CCNC[C@H]2COc2ccc3c(c2)OCO3)cc1 [PAR, paroxetine hydrochloride] | reduces the expression of PD-L1 | 0 mm^3 | 44.74 mm^3 | 61.50 mm^3 | 85.83 mm^3 | 136.25 mm^3 | 176.62 mm^3 | 262.06 mm^3 | 302.90 mm^3 | equivalent therapeutic effects | 0 mm^3 | 43.63 mm^3 | 68.09 mm^3 | 83.54 mm^3 | 177.63 mm^3 | 263.45 mm^3 | 393.48 mm^3 | 510.89 mm^3 | 608.61 mm^3 | equivalent therapeutic effects
2 | Cc1c(C)c2c(c(C)c1O)CC[C@@](C)(CCC[C@H](C)CCC[C@H](C)CCCC(C)C)O2 [VE, a-tocopherol] | – | 0 mm^3 | 58.77 mm^3 | 124.89 mm^3 | 191.75 mm^3 | 284.59 mm^3 | 459.67 mm^3 | 532.81 mm^3 | 624.47 mm^3 | no significant therapeutic effect | – | – | – | – | – | – | – | – | – | –
